How the values were obtained:
[1] = test system: Human Peripheral Blood Mononuclear Cells (PBMC) or Enriched Adherent Mononuclear Cells; test: Cell assay: IL-1β assay with human PBMC or enriched adherent mononuclear cells; format: cell-based; details: LPS-stimulated cells, mature IL-1β in supernatant by ELISA
Description: IL-1β Assay with a Mixed Population of Human Peripheral Blood Mononuclear Cells (PBMC) or Enriched Adherent Mononuclear Cells
Processing of pre-IL-1S by ICE can be measured in cell culture using a variety of cell sources. Human PBMC obtained from healthy donors provides a mixed population of lymphocyte subtypes and mononuclear cells that produce a spectrum of interleukins and cytokines in response to many classes of physiological stimulators. Adherent mononuclear cells from PBMC provides an enriched source of normal monocytes for selective studies of cytokine production by activated cells.
An initial dilution series of test compound in DMSO or ethanol is prepared, with a subsequent dilution into RPMI-10% FBS media (containing 2 mM L-glutamine, 10 mM HEPES, 50 U and 50 ug/ml pen/strep) respectively to yield drugs at 4× the final test concentration containing 0.4% DMSO or 0.4% ethanol. The final concentration of DMSO is 0.1% for all drug dilutions. A concentration titration which brackets the apparent Ki for a test compound determined in an ICE inhibition assay is generally used for the primary compound screen.
We generally test 5-6 compound dilutions and have performed the cellular component of the assay in duplicate, with duplicate ELISA determinations on each cell culture supernatant.
Buffy coat cells isolated from one pint human blood (yielding 40-45 ml final volume plasma plus cells) are diluted with media to 80 ml and LeukoPREP separation tubes (Becton Dickinson) are each overlaid with 10 ml of cell suspension. After 15 min centrifugation at 1500-1800×g, the plasma/media layer is aspirated and then the mononuclear cell layer is collected with a Pasteur pipette and transferred to a 15 ml conical centrifuge tube (Corning). Media is added to bring the volume to 15 ml, gently mix the cells by inversion and centrifuge at 300×g for 15 min. Resuspend the PBMC pellet in a small volume of media, count cells and adjust to 6×10^6 cells/ml.
For the cellular assay, add 1.0 ml of the cell suspension to each well of a 24-well flat bottom tissue culture plate (Corning), 0.5 ml test compound dilution and 0.5 ml LPS solution (Sigma #L-3012; 20 ng/ml solution prepared in complete RPMI media; final LPS concentration 5 ng/ml). The 0.5 ml additions of test compound and LPS are usually sufficient to mix the contents of the wells. Three control mixtures are run per experiment, with either LPS alone, solvent vehicle control, and/or additional media to adjust the final culture volume to 2.0 ml. The cell cultures are incubated for 16-18 hr at 37° C. in the presence of 5% CO2.
At the end of the incubation period, cells are harvested and transferred to 15 ml conical centrifuge tubes. After centrifugation for 10 min at 200×g, supernatants are harvested and transferred to 1.5 ml Eppendorf tubes. It may be noted that the cell pellet may be utilized for a biochemical evaluation of pre-IL-1S and/or mature IL-1β content in cytosol extracts by western blotting or ELISA with pre-IL-1β specific antisera.
PBMC are isolated and prepared as described above. Media (1.0 ml) is first added to wells followed by 0.5 ml of the PBMC suspension. After a one hour incubation, plates are gently shaken and nonadherent cells aspirated from each well. Wells are then gently washed three times with 1.0 ml of media and final resuspended in 1.0 ml media. The enrichment for adherent cells generally yields 2.5−3.0×10^5 cells per well. The addition of test compounds, LPS, cell incubation conditions and processing of supernatants proceeds as described above.
We have used Quantikine kits (R&D Systems) for measurement of mature IL-1β. Assays are performed according to the manufacturer's directions. Mature IL-1β levels of about 1-3 ng/ml in both PBMC and adherent mononuclear cell positive controls are observed. ELISA assays are performed on 1:5, 1:10 and 1:20 dilutions of supernatants from LPS-positive controls to select the optimal dilution for supernatants in the test panel.

[2] = target: T1, ICE (Homo sapiens, UniProt P29466); test: Enzyme assay with UV-visible substrate (Succinyl-Tyr-Val-Ala-Asp-pNitroanilide); format: biochemical
T1 sequence (P29466 120-297 limits assumed): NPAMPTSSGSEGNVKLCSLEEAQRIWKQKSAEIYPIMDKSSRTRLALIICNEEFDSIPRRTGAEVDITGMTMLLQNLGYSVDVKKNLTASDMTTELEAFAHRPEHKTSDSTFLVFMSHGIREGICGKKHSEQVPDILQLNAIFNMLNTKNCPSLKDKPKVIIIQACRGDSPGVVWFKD
T1 sequence (P29466 317-404 limits assumed): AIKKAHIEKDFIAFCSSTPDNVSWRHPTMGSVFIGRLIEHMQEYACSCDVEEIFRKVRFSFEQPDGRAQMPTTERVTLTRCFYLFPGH
Description: 1. Enzyme Assay with UV-Visible Substrate
This assay is run using an Succinyl-Tyr-Val-Ala-Asp-pNitroanilide substrate. Synthesis of analogous substrates is described by L. A. Reiter (Int. J. Peptide Protein Res. 43, 87-96 (1994)). The assay mixture contains:
The visible ICE assay is run in a 96-well microtiter plate. Buffer, ICE and DMSO (if inhibitor is present) are added to the wells in the order listed. The components are left to incubate at room temperature for 15 minutes starting at the time that all components are present in all wells. The microtiter plate reader is set to incubate at 37° C. After the 15 minute incubation, substrate is added directly to the wells and the reaction is monitored by following the release of the chromophore (pNA) at 405-603 nm at 37° C. for 20 minutes. A linear fit of the data is performed and the rate is calculated in mOD/min. DMSO is only present during experiments involving inhibitors, buffer is used to make up the volume to 100 μl in the other experiments.
For determination of enzyme inhibition constants (Ki) or the mode of inhibition (competitive, uncompetitive or noncompetitive), the rate data determined in the enzyme assays at varying inhibitor concentrations are computer-fit to standard enzyme kinetic equations (see I. H. Segel, Enzyme Kinetics, Wiley-Interscience, 1975).

[3] = Homo sapiens, PBMC, Example 6 table

SMILES	Ki ([2]; Example 4 table) [µM]	Ki ([2]; Example 6 table) [µM]	IC50 ([1]; Homo sapiens, PBMC, Example 4 table) [µM]	IC50 [1, 3] [µM]	IC50 ([1]; Example 6 table) [µM]
COc1cccc2nc(C(=O)[C@H](CC(=O)O)NC(=O)[C@H](C)NC(=O)[C@@H](NC(=O)[C@H](Cc3ccc(O)cc3)NC(C)=O)C(C)C)oc12 [Compound 69a, (3S)N-(N-Acetyl-(S)-tyrosinyl-(S)-valinyl-(S)-alaninyl)-3-amino-4-(2-(7-methoxybenzoxazolyl))-4-oxobutanoate]	0.011	–	0.735	–	–
COc1cccc2nc(C(=O)[C@H](CC(=O)O)NC(=O)[C@@H]3C[C@@H](Oc4ccccc4)CN3C(=O)[C@@H](NC(C)=O)C(C)C)oc12 [Compound 86, N-Acetyl-(S)-valinyl-(4-(S)-phenoxy)prolinyl-3(S)-amino-4-(7-methoxybenzoxazol-2-yl)-4-oxo-butanoic acid]	–	0.175	–	4	–
COc1cccc2nc(C(=O)[C@H](CC(=O)O)NC(=O)[C@@H]3C[C@@H](Oc4ccccc4)CN3C(C)=O)oc12 [Compound 87, N-Acetyl(4-(R)-phenoxy)prolinyl-3(S)-amino-4-(7-methoxybenzoxazol-2-yl)-4-oxo-butanoic acid]	–	7.2	–	35	–
O=C(O)C[C@H](NC(=O)Cn1c(Cc2ccccc2)ccc(NC(=O)CCc2ccccc2)c1=O)C(=O)COCc1ccccc1Cl [Compound 90, N-2-(6-Benzyl-1,2-dihydro-2-oxo-3-(3-phenylpropionyl)amino-1-pyridyl)acetyl-3-amino-5-(2-chlorobenzyloxy)-4-oxo-pentanoic acid]	–	0.42	–	6.2	–
O=C(O)C[C@H](NC(=O)Cn1c(Cc2ccccc2)ccc(NC(=O)CCc2ccccc2)c1=O)C(=O)c1ncc(-c2c(Cl)cccc2Cl)s1 [Compound 91]	–	0.26	–	> 25	–
O=C[C@H](CC(=O)O)NC(=O)[C@@H]1CCc2ncc(NC(=O)CCc3ccccc3)c(=O)n21 [Compound 98, 4-Oxo-(3S)-{[4-oxo-3-(3-phenyl-propionylamino)-4,6,7,8-tetrahydro-pyrrolo[1,2-a]pyrimidine-(6S)-carbonyl]-amino}-butyric acid]	–	0.535	–	4	–
COc1cccc2nc(C(=O)[C@H](CC(=O)O)NC(=O)[C@@H]3CCc4ncc(NC(=O)CCc5ccccc5)c(=O)n43)oc12 [Compound 102b, 4-(7-methyoxy-benzoxazol-2-yl)-4-oxo-(3S)-{[4-oxo-3-(3-phenyl-propionylamino)-4,6,7,8-tetrahydro-pyrrolo[1,2-a]pyrimidine-(6S)-carbonyl]-amino}-butric acid]	–	0.29	–	1.75	–
COc1cccc2nc(C(=O)[C@H](CC(=O)O)NC(=O)[C@H](C)n3cccc(NC(=O)CCc4ccccc4)c3=O)oc12 [Compound 126]	–	0.45	–	1.5	–
COc1cccc2nc(C(=O)[C@H](CC(=O)O)NC(=O)Cn3c(Cc4ccccc4)ccc(NC(=O)CCc4ccccc4)c3=O)oc12 [Compound 127]	–	0.39	–	8	–
O=C(O)C[C@H](NC(=O)Cn1c(Cc2ccccc2)ccc(NC(=O)CCc2ccccc2)c1=O)C(=O)c1ncc(-c2c(Cl)cccc2Cl)o1 [Compound 128]	–	0.04	–	7.5	–
C[C@@H](C(=O)N[C@@H](CC(=O)O)C(=O)c1ncc(-c2c(Cl)cccc2Cl)o1)n1cccc(NC(=O)CCc2ccccc2)c1=O [Compound 129]	–	0.59	–	25	–
O=C[C@H](CC(=O)O)NC(=O)[C@@H]1CCCN2CC[C@H](NC(=O)CCc3ccccc3)C(=O)N12 [Compound 133]	–	50	–	> 30	–
O=C(O)C[C@H](NC(=O)[C@@H]1CCCN2C(=O)CC[C@H](NC(=O)CCc3ccccc3)C(=O)N12)C(=O)c1ncc(-c2c(Cl)cccc2Cl)o1 [Compound 137]	–	0.04	–	0.25	–
CS(=O)(=O)N[C@H]1CCC(=O)N2CCC[C@@H](C(=O)N[C@H](C=O)CC(=O)O)N2C1=O [Compound 139]	–	0.35	–	2	–
O=C[C@H](CC(=O)O)NC(=O)[C@@H]1Cc2ccccc2[C@H]2CCC[C@H](NC(=O)CCc3ccccc3)C(=O)N21 [Compound 140]	–	0.87	–	> 30	–
CC(C)[C@H](NC(=O)OCc1ccccc1)C(=O)N[C@@H](C)C(=O)N[C@@H](CC(=O)O)C(=O)c1ncc(-c2ccccc2C(F)(F)F)o1 [Compound 144]	–	0.32	–	> 20	–

Now from value to molecule, other results behind:

Ki ([2]; Example 4 table) [µM]	Ki ([2]; Example 6 table) [µM]	SMILES	IC50 ([1]; Homo sapiens, PBMC, Example 4 table) [µM]	IC50 [1, 3] [µM]	IC50 ([1]; Example 6 table) [µM]
–	2.3	O=C[C@H](CC(=O)O)NC(=O)CN1C(=O)[C@@H](NC(=O)CCc2ccccc2)CNc2ccccc21 [Compound 106a]	–	30	–
–	3.8	O=C[C@H](CC(=O)O)NC(=O)CN1C(=O)[C@@H](NC(=O)CCc2ccccc2)CN(Cc2ccccc2)c2ccccc21 [Compound 106c, 3(S)-{2-[5-Benzyl-2-oxo-3-(3(S)-phenylpropionylamino)-2,3,4,5-tetrahydrobenzo[b][1, 4]diazepin-1-yl]-acetylamino}-4-oxobutyric acid]	–	> 30	–
–	0.4	COc1cccc2nc(C(=O)[C@H](CC(=O)O)NC(=O)CN3C(=O)[C@@H](NC(=O)CCc4ccccc4)CN(C(=O)CCc4ccccc4)c4ccccc43)oc12 [Compound 108b, 4-(7-Methoxybenzoxazol-2-yl)-4-oxo-3(S)-{2-[2-oxo-5-(3-phenylpropionyl)-3(S)-(3-phenylpropionylamino)-2,3,4,5-tetrahydrobenzo[b][1,4]diazepin-1-yl]-acetylamino}butyric acid]	–	25	–
–	0.39	O=C(O)C[C@H](NC(=O)Cn1c(Cc2ccccc2)ccc(NC(=O)CCc2ccccc2)c1=O)C(=O)CSCc1ccccc1Cl [Compound 125a]	–	–	> 30
–	5	O=C[C@H](CC(=O)O)NC(=O)[C@@H]1CCCN2C(=O)C[C@H](NC(=O)CCc3ccccc3)C(=O)N12 [Compound 132a]	–	> 30	–
–	0.09	COc1cccc2nc(C(=O)[C@H](CC(=O)O)NC(=O)[C@@H]3CCCN4C(=O)CC[C@H](NC(=O)CCc5ccccc5)C(=O)N34)oc12 [Compound 135a]	–	0.9	–
–	0.32	COc1cccc2oc(C(=O)[C@H](CC(=O)O)NC(=O)[C@@H]3CCCN4C(=O)CC[C@H](NC(=O)CCc5ccccc5)C(=O)N34)nc12 [Compound 135b]	–	0.95	–

— patent US20110015371A1 (Vertex Pharmaceuticals Incorporated, priority 1994, published 2011)
